Reference: ChEMBL document CHEMBL1201862, “PubChem BioAssay data set” (2004)
The source made the active and inactive calls.

What was measured:
INS1 = test: INS-1E survival protection against cytokine death – cell-based, luminescence, retest, dose response (AID 449756); type: functional; conditions: Rattus norvegicus;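 further: cell death triggered by IL-1 beta plus TNF-alpha plus IFN-gamma mixture; protective hits raise ATP signal compared with cytokine alone wells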
[1] = target: T1, Apoptotic protease-activating factor 1 (Homo sapiens, UniProt O14727); type: functional
T1 sequence (O14727 whole entry): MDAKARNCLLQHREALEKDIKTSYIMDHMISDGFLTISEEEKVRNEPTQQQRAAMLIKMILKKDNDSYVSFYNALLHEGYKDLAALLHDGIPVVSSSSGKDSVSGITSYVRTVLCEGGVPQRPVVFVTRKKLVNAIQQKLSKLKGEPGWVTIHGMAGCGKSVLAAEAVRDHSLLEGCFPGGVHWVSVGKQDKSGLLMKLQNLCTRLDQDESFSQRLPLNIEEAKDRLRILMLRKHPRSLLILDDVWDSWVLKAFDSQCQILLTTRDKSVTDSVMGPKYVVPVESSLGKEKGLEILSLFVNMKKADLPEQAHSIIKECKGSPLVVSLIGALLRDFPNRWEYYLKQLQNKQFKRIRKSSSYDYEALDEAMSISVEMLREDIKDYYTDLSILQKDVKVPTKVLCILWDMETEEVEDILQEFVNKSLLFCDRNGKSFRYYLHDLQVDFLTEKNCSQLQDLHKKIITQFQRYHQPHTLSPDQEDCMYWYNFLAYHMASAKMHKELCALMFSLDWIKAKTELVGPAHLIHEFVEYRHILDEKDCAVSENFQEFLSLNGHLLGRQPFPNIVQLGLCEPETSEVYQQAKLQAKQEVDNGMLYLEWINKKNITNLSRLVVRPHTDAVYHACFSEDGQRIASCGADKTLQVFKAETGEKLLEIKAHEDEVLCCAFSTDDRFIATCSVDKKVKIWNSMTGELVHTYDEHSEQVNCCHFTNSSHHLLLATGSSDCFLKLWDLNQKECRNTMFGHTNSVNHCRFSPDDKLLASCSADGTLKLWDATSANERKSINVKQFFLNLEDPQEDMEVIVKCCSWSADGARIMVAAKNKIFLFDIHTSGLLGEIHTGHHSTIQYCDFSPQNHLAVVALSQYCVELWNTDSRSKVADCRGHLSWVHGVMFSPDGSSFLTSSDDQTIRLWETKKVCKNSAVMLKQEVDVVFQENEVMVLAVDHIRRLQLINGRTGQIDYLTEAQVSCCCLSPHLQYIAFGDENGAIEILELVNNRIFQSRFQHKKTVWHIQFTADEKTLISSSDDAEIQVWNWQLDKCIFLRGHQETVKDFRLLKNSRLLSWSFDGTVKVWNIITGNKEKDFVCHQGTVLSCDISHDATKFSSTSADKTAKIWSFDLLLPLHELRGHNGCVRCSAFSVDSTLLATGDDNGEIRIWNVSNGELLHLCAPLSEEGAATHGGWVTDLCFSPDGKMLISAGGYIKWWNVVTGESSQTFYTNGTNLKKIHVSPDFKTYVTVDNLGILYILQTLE

[2] = target: T2, Sentrin-specific protease 8 (Homo sapiens, UniProt Q96LD8); type: functional;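 further: luminescence read-out of SENP8 inhibition, dose-response confirmation following an ultra-high-throughput screen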
T2 sequence (Q96LD8 whole entry): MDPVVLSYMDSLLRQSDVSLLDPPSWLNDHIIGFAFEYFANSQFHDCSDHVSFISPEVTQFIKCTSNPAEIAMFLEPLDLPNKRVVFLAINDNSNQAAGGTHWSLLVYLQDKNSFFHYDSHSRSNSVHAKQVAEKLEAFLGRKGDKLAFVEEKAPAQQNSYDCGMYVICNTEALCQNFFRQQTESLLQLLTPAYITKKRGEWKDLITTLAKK

Caspase-3 = target: T3, Caspase-3 (Homo sapiens, UniProt P42574); type: functional;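 further: Dose-response selectivity test against caspase-3 for candidate inhibitors of sentrin-specific proteases (SENPs)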
T3 sequence (P42574 whole entry): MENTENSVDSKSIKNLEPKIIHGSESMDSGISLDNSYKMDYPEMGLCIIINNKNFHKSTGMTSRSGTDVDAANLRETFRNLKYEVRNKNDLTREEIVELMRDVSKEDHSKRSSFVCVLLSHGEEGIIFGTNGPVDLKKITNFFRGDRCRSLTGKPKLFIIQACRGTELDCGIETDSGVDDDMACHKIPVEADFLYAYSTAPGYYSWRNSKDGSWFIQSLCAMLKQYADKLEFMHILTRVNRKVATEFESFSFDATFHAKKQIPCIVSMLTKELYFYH

BJ [3] = test: BJ-TERT-LT-ST fibroblast viability loss – cell-based, RAS-independent, luminescence, dose response (AID 1935); type: functional; conditions: Homo sapiens;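 further: BJ fibroblasts immortalized with TERT plus LT and ST oncogenes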
[4] = target: T4, Tyrosyl-DNA phosphodiesterase 2 (Homo sapiens, UniProt O95551); test: potency against TDP2 phosphodiesterase activity – biochemical, epi absorbance, IC50, dose response (AID 743297)
T4 sequence (O95551 whole entry): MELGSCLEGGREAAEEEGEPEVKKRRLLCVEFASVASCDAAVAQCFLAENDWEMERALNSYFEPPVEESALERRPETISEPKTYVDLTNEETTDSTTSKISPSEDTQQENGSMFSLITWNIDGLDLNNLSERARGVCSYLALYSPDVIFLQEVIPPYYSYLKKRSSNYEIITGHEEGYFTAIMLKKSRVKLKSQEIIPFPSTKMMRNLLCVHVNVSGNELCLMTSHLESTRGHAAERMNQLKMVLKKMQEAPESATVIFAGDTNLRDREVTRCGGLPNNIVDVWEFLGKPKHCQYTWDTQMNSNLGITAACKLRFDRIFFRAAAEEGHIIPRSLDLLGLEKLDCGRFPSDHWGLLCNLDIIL

[5] = DRD fibroblast viability loss – cell-based, non-viral oncogenic, luminescence, dose response (AID 1934); type: functional; conditions: Homo sapiens
BJ [6] = test: cells; type: functional, cell-based; conditions: Homo sapiens

SMILES | AC50 (INS1) | IC50 [1] | IC50 [2] | IC50 (Caspase-3) | EC50 (BJ [3]) | IC50 [4] | EC50 [5] | EC50 (BJ [6])
CCc1cc[n+](C2=C([N-]S(=O)(=O)c3cccs3)C(=O)c3ccccc3C2=O)cc1 | 2.76 µM (active) | 11.2 µM (active) | 8.48 µM (active) | 12.5 µM (active) |  |  |  | 
O=C(NC1=C(NC2CCS(=O)(=O)C2)C(=O)c2ccccc2C1=O)c1ccccc1 (configuration not stated) |  | 2.1 µM (active) |  |  | > 75 µM (not active) | 28.3 µM (inactive) | 14.6 µM (active) | 3.28 µM (active)
CCCC(=O)NC(c1ccc(N(C)C)cc1)c1ccc2cccnc2c1O (configuration not stated) | 0.598 µM (active) |  |  |  | 2.72 µM (active) |  | 2.54 µM (active) | 3.42 µM (active)
COc1ccccc1N(/N=C1\Sc2ccccc2C1=O)C(C)=O |  | 13.3 µM (active) | 5.39 µM (active) | 27.8 µM (active) |  | 20 µM (inactive) |  | 
